In patent US20240252596A1, “Injectable Polymeric Biopharmaceutical Formulations” (The Board of Trustees of the Leland Stanford Junior …, priority 2023, published 2024):

Assays:
[1] = Liquid carrier studies: suspension performance of BSA/MoNi (5%) microparticles at 460 mg/mL; conditions: for Suspension Performance: BSA/MoNi (5%) microparticles dispersed at 460 mg/mL in the media; for Additional comments (consistency on dispersion, stability of suspension): BSA/MoNi (5%) microparticles dispersed in the media; for time until suspension hardens: sealed in a glass container with parafilm
Experimental: (§1) To investigate the liquid carrier component of the subject compositions, a number of solvents were tested for their suspension performance characteristics.

[2] = Syringe force measurements of liquid carriers alone after 48 h; assay type: physicochemical; conditions: media alone in syringe, after 48 h at ambient temperature
Experimental: To investigate the syringe force profile for various liquid carriers in syringes (e.g., break loose (initiating) force, and the glide (sustaining) force), the following media alone were loaded into syringes in duplicate (n=2): • 1. triacetin (100%) • 2. benzyl benzoate (100%) • 3. Miglyol 810 (100%) • 4. Miglyol 840 (100%) • 5. benzyl alcohol (100%) • 6. ethyl oleate (100%).
The above syringes were stored for 48 h at ambient temperature, protected from light.
Syringe force measurements (n=2) were conducted on each media after 48 h.

[3] = Parameters of liquid carriers (density, viscosity, vapor pressure); conditions: liquid carrier
Experimental: as §1

[4] = Syringe force measurements of liquid carriers alone after 48 h; assay type: physicochemical; conditions: vehicle
SKH1-E mice = test: Tolerability screen: subcutaneous injection of solvent or solvent blend, adverse skin reaction; assay type: in vivo; conditions: 10 uL s.c.
Experimental: SKH1-E mice were subcutaneously administered 10 μL of solvent or solvent blend with triacetin (no protein). […] Volume of solvent injected was 2× the solvent volume that would be administered to a mouse in a paste.
Degree of adverse skin reaction was quantified using the grading scale of Table 5: […]

| Compound | Suspension Performance [1] | Additional comments (consistency on dispersion, stability of suspension) [1] | Break loose (N), n = 2 [2] | Glide force (N), n = 2 [2] | Density [3] | Vapor pressure [3] | Viscosity (@25 C.) [3] | Viscosity (cp)* [4] | time until suspension hardens [1] | skin reaction (SKH1-E mice) |
| --- | --- | --- | --- | --- | --- | --- | --- | --- | --- | --- |
| C[S+](C)[O-] [Dimethyl sulfoxide (DMSO), Dimethyl sulfoxide] | – | quickly hardens into a flaky | – | – | 1.09 g/mL | 80 Pa | 2.0 | – | paste (within 1 hour when sealed | – |
| CN1CCCC1=O [N-methyl-2-pyrrolidone (NMP), N-methyl-2-pyrrolidone] | +/− | Forms very low viscosity | – | – | 1.03 g/mL | 45 Pa | 1.89 | – | – | – |
| CC(O)CO (stereo not drawn) [Propylene glycol (PG), Propylene glycol] | – | quickly hardens into a sticky | – | – | 1.03 g/mL | 11 Pa | 48.6 | – | rock (within a couple hours | – |
| CC(=O)OCC(COC(C)=O)OC(C)=O [Triacetin] | ++ | A very good non-solvent. Shows | 8.1 N | 6.1 N | 1.16 g/mL | 0.267 Pa | 23 | 23 cp | – | no skin swelling or redness |

Now from value to molecule, other results behind:

| Suspension Performance [1] | Additional comments (consistency on dispersion, stability of suspension) [1] | Break loose (N), n = 2 [2] | Glide force (N), n = 2 [2] | Density [3] | Vapor pressure [3] | Viscosity (@25 C.) [3] | Viscosity (cp)* [4] | time until suspension hardens [1] | Compound | skin reaction (SKH1-E mice) |
| --- | --- | --- | --- | --- | --- | --- | --- | --- | --- | --- |
| + | Forms very low viscosity | 4.8 N | 2.5 N | 1.04 g/mL | 12 Pa | 5.4 | 5 cp | – | OCc1ccccc1 [Benzyl Alcohol (BA), Benzyl Alcohol] | – |
| + | Forms a low viscosity solution | 5.7 N | 3.5 N | 1.11 g/mL | – | 8.29 | 8-9 cp | – | O=C(OCc1ccccc1)c1ccccc1 [Benzyl benzoate] | – |
| – | Clumps immediately, cannot | – | – | 0.79 g/mL | – | 1.07 | – | – | CCO [Ethyl alcohol] | – |
| – | – | 4.2 N | 3.2 N | – | – | – | 6 cp | – | CCCCCCCC/C=C\CCCCCCCC(=O)OCC [ethyl oleate] | – |
